Assay results reported in PMC9833666, “Designing and identifying β-hairpin peptide macrocycles with antibiotic potential” (Science Advances, 2023).
Like-named read-outs stand apart in the source and are kept apart here. Bridge positions count the residues as written; N and C are the ends. Peptide text beside a SMILES is read from it.

Assays:
[1] = system: gram-positive and gram-negative pathogens, including colistin-resistant strains; test: MIC against pathogen panel (tables S4 and S5, not shown); type: cell-based
Method: MICs were performed by a modifiedClinical and Laboratory Standards Institute) procedure. Stock peptides were diluted to 2.56 mg/ml in 50 μl of 0.01% acetic acid containing 0.2% bovine serum albumin. Peptide was then serially diluted twofold in this solution, and 10 μl of each dilution was added to a polypropylene 96-well plate (Corning, ref. no. 3879) in triplicate. Separately, E. coli W3110 or A. baumannii AB5075 was grown overnight in 5 ml of standard MH at 37°C. Cells from these cultures were diluted to a concentration of 5 × 10^5 to 6 × 10^5 cells/ml in either standard MH, MHII, RPMI, or fetal bovine serum, and 90 μl was added to each well of the 96-well plate containing diluted peptide. Plates were wrapped twice in parafilm and incubated at 37°C for 18 to 24 hours. Wells were examined by eye against wells with no bacteria for signs of growth. MICs were reported as the minimum concentration with no observable growth. In cases where triplicate samples differed, the concentration supported by the median of the three replicates was reported.
A. baumannii 17978 Lab Stock
A. baumannii 17978 R2 Lab Stock
V. cholerae C6706 Lab Stock
P. aeruginosa ATCC 27853 ATCC
K. pneumonia ATCC 1705 ATCC
S. aureus USA100 Lab Stock
Excel spreadsheet with chemically synthesized peptide properties and biochemical data.
Excel spreadsheet with all SynCH SLAY data analysis and potency score predictions

[2] = system: Single-donor human red blood cells; test: Hemolysis assay; type: cell-based; details: hemolysis at 128 µg/ml
How it was run: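 Peptides at 300 μg/ml (SySA library) or 128 μg/ml (SySA-5 optimization library) were incubated in triplicate with washed single-donor RBCs (1 × 10^9 cells/ml) for 3 h at 37 °C. Supernatant A540 was background-normalized to PBS and expressed relative to 1% Triton X-100 (100% hemolysis).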

[3] = system: Acinetobacter baumannii AB5075; details: for AB5075 MIC FBS: 100% fetal bovine serum; for AB5075 MIC MH: Mueller-Hinton

## CC(C)C[C@@H]1NC(=O)[C@H](CCCNC(=N)N)NC(=O)[C@H](C(C)C)NC(=O)[C@H](CCCCN)NC(=O)[C@@H]2CSSC[C@H](NC(=O)[C@H](CCCNC(=N)N)NC(=O)[C@H](CC(C)C)NC(=O)[C@H](CCCNC(=N)N)NC(=O)[C@H](C(C)C)NC(=O)[C@H](CCCNC(=N)N)NC(=O)[C@@H](N)CSSC[C@@H](C(=O)O)NC(=O)[C@H](CCCNC(=N)N)NC1=O)C(=O)N[C@@H](CCCNC(=N)N)C(=O)N[C@@H](CCCNC(=N)N)C(=O)N[C@@H](CCCNC(=N)N)C(=O)N[C@@H](CCCNC(=N)N)C(=O)N2 [SySA-5.17] (H-CRVRLRCRRRRCKVRLRC-OH; disulfide 1-18, 7-12 (inferred); N-terminus and C-terminus assumed)
[1]
  spectrum of activity: broad-spectrum activity
[2]
  fold less hemolytic (toxicity) than Protegrin-1: over 10 fold
[2]; fold change relative to SySA-5
  Fold Change Hemolysis: 2.4
[2]; listed as SySA 5.17
  fold less hemolytic (toxicity) than Protegrin-1: greater than ten-fold
[3]; median of triplicate
  AB5075 MIC FBS: 32 µg/mL
[3]; replicate 1
  AB5075 MIC FBS: 32 µg/mL
  AB5075 MIC MH: 4 µg/mL
[3]; replicate 2
  AB5075 MIC FBS: 32 µg/mL
  AB5075 MIC MH: 4 µg/mL
[3]; replicate 3
  AB5075 MIC FBS: 32 µg/mL
  AB5075 MIC MH: 4 µg/mL
